This passage reports IC50 and melting point results from patent US6599925B2 (Wyeth, priority 2001, dated 2003).

In data set [1] the target is human PAI-1 (Homo sapiens, UniProt P05121). Description: Assay for determining IC50 of inhibition of PAI-1 (Antibody Assay). It is filed as binding. As to conditions: footnote a: determined by the Antibody Assay; active PAI-1 bound to tPA-coated plate, pH 7.5. Here is the method: Assay for Determining IC50 of Inhibition of PAI-1
This assay is based upon the non-SDS dissociable interaction between tPA and active PAI-1. Assay plates are initially coated with human tPA (10 μg/ml). Test compounds are dissolved in DMSO at 10 mM, then diluted with physiologic buffer (pH 7.5) to a final concentration of 1-50 μM. The test compounds are incubated with human PAI-1 (50 ng/ml) for 15 minutes at room temperature. The tPA-coated plate is washed with a solution of 0.05% Tween 20 and 0.1% BSA, then the plate is blocked with a solution of 3% BSA. An aliquot of the test compound/PAI-1 solution is then added to the tPA-coated plate, incubated at room temperature for 1 hour, and washed. Active PAI-1 bound to the plate is assessed by adding an aliquot of a 1:1000 dilution of the 33B8 monoclonal antibody against human PAI-1, and incubating the plate at room temperature for 1 hour (Molecular Innovations, Royal Oak, Mich.). The plate is again washed, and a solution of goat anti-mouse IgG-alkaline phosphatase conjugate is added at a 1:50,000 dilution in goat serum. The plate is incubated 30 minutes at room temperature, washed, and a solution of alkaline phosphatase substrate is added. The plate is incubated 45 minutes at room temperature, and color development is determined at OD405nm. The quantitation of active PAI-1 bound to tPA at varying concentrations of the test compound is used to determine the IC50. Results are analyzed using a logarithmic best-fit equation. The assay sensitivity is 5 ng/ml of human PAI-1 as determined from a standard curve ranging from 0-100 ng/ml.

human PAI-1, sequence (P05121 24-402): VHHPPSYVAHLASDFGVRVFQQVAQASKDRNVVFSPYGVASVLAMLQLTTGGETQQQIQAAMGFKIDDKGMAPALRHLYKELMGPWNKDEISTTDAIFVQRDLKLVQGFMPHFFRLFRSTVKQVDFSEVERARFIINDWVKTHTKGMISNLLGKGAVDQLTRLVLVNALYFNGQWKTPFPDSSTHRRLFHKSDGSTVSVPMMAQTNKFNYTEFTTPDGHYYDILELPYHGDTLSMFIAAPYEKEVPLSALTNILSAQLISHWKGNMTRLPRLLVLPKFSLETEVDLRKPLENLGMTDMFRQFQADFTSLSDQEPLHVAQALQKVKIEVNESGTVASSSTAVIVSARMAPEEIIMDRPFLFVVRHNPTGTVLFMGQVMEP

The compound `O=C(CC1CCCC1)c1c(-c2ccc3c(Br)c(OCc4nnn[nH]4)ccc3c2)oc2ccccc12` [Example 13, 1-{2-[5-Bromo-6-(1H-1,2,3,4-tetraazol-5-ylmethoxy)-2-naphthyl]-1-benzofuran-3-yl}-2-cyclopentyl-1-ethanone] came in with a melting point of 186 to 187 °C. In data set [1], this compound had an IC50 of 10.1 µM.
The corresponding values for `CCCCC(=O)c1c(-c2ccc3c(-c4ccccc4)c(OCC(=O)[O-])ccc3c2)oc2ccccc12.[Na+]` [Example 14, 2-{[6-(3-Pentanoyl-1-benzofuran-2-yl)-1-phenyl-2-naphthyl]oxy}acetic acid, sodium salt] are 272 to 273 °C (dec.) and 2.7 µM.
The like results for `CCCCC(=O)c1c(-c2ccc3c(-c4ccccc4)c(OCc4nnn[nH]4)ccc3c2)oc2ccccc12` [Example 16, 1-{2-[5-Phenyl-6-(1H1,2,3,4-tetraazol-5-ylmethoxy)-2-naphthyl]-1-benzofuran-3-yl}-1-pentanone] were, in that order, 160 to 164 °C and 10 µM.
Compound `O=C(O)COc1ccc2cc(-c3oc4ccccc4c3C(=O)CC3CCCC3)ccc2c1Br` [Example 17, 2-({1-Bromo-6-[3-(2-cyclopentylacetyl)-1-benzofuran-2-yl]-2-naphthyl}oxy)acetic acid] returned a melting point of 150 to 152 °C. The same compound came in with an IC50 in data set [1] of 2.7 µM.
Compound `CCCCC(=O)c1c(-c2ccc3c(C)c(OCc4nnn[nH]4)ccc3c2)oc2ccccc12` [Example 20, 1-{2-[5-Methyl-6-(1H-1,2,3,4-tetraazol-5-ylmethoxy)-2-naphthyl]-1-benzofuran-3-yl}-1-pentanone] came in with a melting point of 162 to 164 °C. In addition, half-maximal inhibition in data set [1] (IC50) was put at 24.2 µM.
The corresponding values for `CCCCC(=O)c1c(-c2ccc3c(C)c(OCC(=O)O)ccc3c2)oc2ccccc12` [Example 22, 2-{[1-Methyl-6-(3-pentanoyl-1-benzofuran-2-yl)-2-naphthyl]oxy}acetic acid] are 153 to 155 °C and 13.3 µM.
The like results for `CCCCC(=O)c1c(-c2ccc3c(C)c(OC(Cc4ccccc4)C(=O)[O-])ccc3c2)oc2ccccc12.[Na+]` (stereo not drawn) [Example 23, 2-{[1-Methyl-6-(3-pentanoyl-1-benzofuran-2-yl)-2-naphthyl]oxy}-3-phenylpropanoic acid, sodium salt] were, in that order, 221 to 222 °C and 12.4 µM.
The corresponding values for `CCCCC(=O)c1c(-c2ccc3c(Cl)c(OCC(=O)O)ccc3c2)oc2ccccc12` [Example 24, 2-{[1-Chloro-6-(3-pentanoyl-1-benzofuran-2-yl)-2-naphthyl]oxy}acetic acid] are 142 to 143 °C and 11 µM.
Turning to `CCCCC(=O)c1c(-c2ccc3c(Cl)c(OCc4nnn[nH]4)ccc3c2)oc2ccccc12` [Example 25, 1-{2-[5-Chloro-6-(1H-1,2,3,4-tetraazol-5-ylmethoxy)-2-naphthyl]-1-benzofuran-3-yl}-1-pentanone], the melting point lay within 168 to 169 °C. The compound also showed an IC50 in data set [1] of 14 µM.
The corresponding values for `O=C(O)COc1ccc2cc(-c3oc4ccccc4c3-c3ccccc3)ccc2c1-c1ccccc1` [Example 29, {[1-Phenyl-6-(3-phenyl-1-benzofuran-2-yl)-2-naphthyl]oxy}acetic acid] are 202 to 203 °C and 3.85 µM.
The corresponding values for `CCCCCc1c(-c2ccc3cc(OCc4nnn[nH]4)ccc3c2)oc2ccccc12` [Example 34, 5-[6-(3-Pentyl-benzofuran-2-yl)-naphthalen-2-yloxymethyl]-1H-tetrazole] are 178 to 180 °C and 8.17 µM.
As to `CCCCCc1c(-c2ccc3c(Br)c(OCC(=O)O)ccc3c2)oc2ccccc12` [Example 36, [1-Bromo-6-(3-pentyl-benzofuran-2-yl)-naphthalen-2-yloxy]-acetic acid], the melting point lay within 159 to 161 °C. In addition, in data set [1], the IC50 was 6.54 µM.
